Data: US10174358B2 (priority 2013, dated 2019)

Target: T1, EF-Tu:GTP:aa-tRNA ternary complex (Escherichia coli, UniProt P0CE48, C138A/C256V/E349C)
T1 construct: made in house; host or cells: E. coli BL-21
Type: binding
Settings: for effect of the inhibitor on fluorescence intensity in the assay: addition of inhibitor to the formed ternary complex, Ex 532/Em 665 nm
Method: FRET Assay (Assembly Fluorescence)
FRET measurements were done using Photon Technology International fluorescence spectrofluorometer with FeliX software. Cy3 fluorescence was monitored in the spectrum or time base mode at excitation/emission 549/565 nm. […] The slot parameters and photomultiplier voltage were adjusted to get a response in the range of 0.5-1.2×10^6 RFU for the Cy3 fluorescence scan at the 20-30 nM Phe-tRNA^Phe(Cy3) concentration and 4-5×10^4 RFU for Cy5 fluorescence scan (excitation/emission 633/665 nm) at the 300-400 nM Cy5-EF-Tu concentration. The titration of Phe-tRNA^Phe(Cy3) by Cy5-EF-Tu was typically done in presence of 100 μM GTP in a 150 μl volume of the same incubation buffer as used in the above mentioned gel retardation assay. During the assay (up to 120 minutes), the reaction mix also was supplemented with 1 mM ATP and 5 μg/ml of Phe-tRNA synthetase to prevent deacylation of Phe-tRNA^Phe(Cy3). The concentration of Phe-RNA^Phe(Cy3) was up to 30 nM and GTP:Cy5-EF-Tu was varied in range of 30-240 nM.
All FRET measurements were done using PTI (Photon Technology International) fluorescence spectrofluorometer with FeliX 1.42B software. The FRET was monitored in the time-base mode using the 532 nm excitation and 665 nm emission (suitable for the Cy5 dye). The slot parameters and photomultiplier voltage were adjusted to get a response in the range of 2.6-3×10^3 RFU for the Cy5 fluorescence at a 200 nM concentration of Cy5-labeled EF-Tu. Time-base titration experiments were typically carried out in a 150 μl black cuvette at 25 or 37° C. The Cy5 fluorescence was monitored at five second intervals for up to 2 hours. Cy5-labeled EF-Tu carrying the E348C mutation was added from a concentrated stock solution to reach the final concentration of 180-200 nM.
The 5× incubation buffer was 350 mM HEPES-KOH (pH 7.6), 260 mM NH4OAc, 40 mM Mg(OAc)2, 150 mM KCl, 7 mM DTT and 12.6% glycerol. The 1× incubation buffer in final reaction volume was also supplemented with 1 mM ATP and 5 μg/ml of Phe-tRNA synthetase, 7.2 mM phosphoenolpyruvate and 2.5 U/ml pyruvate kinase; a 40 μM stock of Cy3-labeled aminoacylated tRNA^Phe, a 30 μM stock of Cy3-labeled uncharged tRNA^Phe, a 110 μM stock of Cy5-labeled EF-Tu [C137A, C255V, E348C], a 5 mg/ml stock of Phe-tRNA synthetase, and a 10 mM stock in DMSO (7.97 mg/ml) of Kirromycin (FW 796.9).
The Cy5-labeled EF-Tu [180 nM] (GTP form) in a 300 μl volume was placed in 1× incubation buffer. The volume was split into two parts and measured in two sets at 25° C.
The Cy5-labeled EF-Tu [180 nM] (GTP form) in a 300 μl volume was placed in 1× incubation buffer. The reaction was split into two parts and supplemented with 100 μM GTP (Set I) or GDP (Set II). The fluorescence intensity was measured at 25° C.
The Cy5-labeled EF-Tu [320 nM] (GTP form) was in a 300 μl volume of the 1× incubation buffer. The reaction was supplemented with 100 μM GTP and split on two parts.

T1 sequence (P0CE48 2-394 C138A/C256V/E349C, one chain of several): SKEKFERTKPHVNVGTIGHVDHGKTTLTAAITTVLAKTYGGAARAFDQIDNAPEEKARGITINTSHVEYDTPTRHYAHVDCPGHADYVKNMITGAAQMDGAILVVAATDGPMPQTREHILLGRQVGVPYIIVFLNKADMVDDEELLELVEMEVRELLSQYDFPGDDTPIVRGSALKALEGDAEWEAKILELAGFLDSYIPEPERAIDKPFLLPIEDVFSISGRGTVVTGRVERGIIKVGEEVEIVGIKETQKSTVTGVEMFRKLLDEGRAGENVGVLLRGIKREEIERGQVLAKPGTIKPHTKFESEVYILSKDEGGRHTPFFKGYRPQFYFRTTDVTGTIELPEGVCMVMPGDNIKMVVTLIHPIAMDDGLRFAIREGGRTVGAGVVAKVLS

Molecule	decrease in the Cy5 fluorescence of the formed complex (10-fold molar excess of GDP added to formed complex, Cy5-EF-Tu 180 nM, 100 μM GTP, Phe-tRNA^Phe(Cy3) 160 nM, 25° C., FIG. 12) [%]	FRET response when Cy5-labeled EF-Tu was incubated with GDP (Cy5-EF-Tu 180 nM incubated with 100 μM GDP instead of GTP (plot 2 / set II), FIG. 12)	effect of the inhibitor on fluorescence intensity in the assay	decrease of FRET response after addition of kirromycin (kirromycin 80 μM, Cy5-labeled EF-Tu 180 nM (GTP form), Cy3-PhetRNA^Phe 160 nM, 25° C., FIG. 13)
Nc1nc2c(ncn2[C@@H]2O[C@H](COP(=O)(O)OP(=O)(O)O)[C@@H](O)[C@H]2O)c(=O)[nH]1 [GDP]	60	significantly lower	significantly reduces the fluorescence intensity	
kirromycin			significantly reduces the fluorescence intensity	approximately 30%
